Reference: ChEMBL document CHEMBL1136455, “The synthesis and antibacterial activity of 1,3,4-thiadiazole phenyl oxazolidinone analogues” (Bioorg Med Chem Lett, 2003)
≈ marks a conversion by molar mass, not a printed value.

Key:
[1] = system: Staphylococcus epidermidis; experiment: In vitro antibacterial activity against methicillin resistant Staphylococcus epidermidis UC 12084; assay type: functional
Haemophilus influenzae = experiment: In vitro antibacterial activity against ampicillin resistant Haemophilus influenzae 30063 (B-lactamase +); assay type: functional
Moraxella catarrhalis = experiment: In vitro antibacterial activity against Moraxella catarrhalis 30607; assay type: functional
Staphylococcus aureus [2] = experiment: In vitro antibacterial activity against methicillin susceptible Staphylococcus aureus UC 9213 (MSSA); assay type: functional
Staphylococcus aureus [3] = experiment: In vitro antibacterial activity against methicillin resistant Staphylococcus aureus UC 12673 (MRSA); assay type: functional
Streptococcus pneumoniae = experiment: In vitro antibacterial activity against penicillin sensitive Streptococcus pneumoniae UC 9912; assay type: functional
Mus musculus [4] = experiment: In vivo efficacy to protect the Staphylococcus aureus infected mouse and the activity was reported using Linezolid as a control with ED50 = 3.8; assay type: functional
Enterococcus faecalis = experiment: In vitro antibacterial activity against vancomycin resistant Enterococcus faecalis UC 9217 (VREA); assay type: functional
Mus musculus [5] = experiment: In vivo efficacy to protect the Staphylococcus aureus infected mouse and the activity was reported using Linezolid as a control with ED50 = 2.2
Mus musculus [6] = experiment: In vivo efficacy to protect the Staphylococcus aureus infected mouse and the activity was reported using Linezolid as a control with ED50 = 1.8; assay type: functional
Mus musculus [7] = experiment: In vivo efficacy to protect the Staphylococcus aureus infected mouse and the activity was reported using Linezolid as a control with ED50 =[…]; assay type: functional
[8] = system: Staphylococcus epidermidis; experiment: In vitro antibacterial activity against methicillin resistant Staphylococcus epidermidis UC 12084; range is 1-2; assay type: functional
Mus musculus [9] = experiment: In vivo efficacy to protect the Staphylococcus aureus infected mouse and the activity was reported using Linezolid as a control with ED50 = 5; assay type: functional
Mus musculus [10] = experiment: In vivo efficacy to protect the Staphylococcus aureus infected mouse and the activity was reported using Linezolid as a control with ED50 = 4.3; assay type: functional
Mus musculus [11] = experiment: In vivo efficacy to protect the Staphylococcus aureus infected mouse and the activity was reported using Linezolid as a control with ED50 = 3.5; assay type: functional
Mus musculus [12] = experiment: In vivo efficacy to protect the Staphylococcus aureus infected mouse and the activity was reported using Linezolid as a control with ED50 = 8; assay type: functional
[13] = Clearance in rat; assay type: ADME, organism-based; conditions: in vivo
[14] = Bioavailability in rat; assay type: ADME, organism-based; conditions: in vivo
Mus musculus [15] = experiment: In vivo efficacy to protect the Staphylococcus aureus infected mouse and the activity was reported using Linezolid as a control with ED50 =11.5; assay type: functional
Mus musculus [16] = experiment: In vivo efficacy to protect the Staphylococcus aureus infected mouse and the activity was reported using Linezolid as a control with ED50 = 5.6; assay type: functional
Mus musculus [17] = experiment: In vivo efficacy to protect the Staphylococcus aureus infected mouse and the activity was reported using Linezolid as a control with ED50 = 2.9; assay type: functional
Mus musculus [18] = experiment: In vivo efficacy to protect the Staphylococcus aureus infected mouse and the activity was reported using Linezolid as a control with ED50 = 3.1; assay type: functional
Mus musculus [19] = experiment: In vivo efficacy to protect the Staphylococcus aureus infected mouse and the activity was reported using Linezolid as a control with ED50 =4; assay type: functional
Mus musculus [20] = experiment: In vivo efficacy to protect the Staphylococcus aureus infected mouse and the activity was reported using Linezolid as a control with ED50 = 2.2; assay type: functional

| Compound | MIC [1] [µg/mL] | MIC (Haemophilus influenzae) [µg/mL] | MIC (Moraxella catarrhalis) [µg/mL] | MIC (Staphylococcus aureus [2]) [µg/mL] | MIC (Staphylococcus aureus [3]) [µg/mL] | MIC (Streptococcus pneumoniae) [µg/mL] | MIC (Enterococcus faecalis) [µg/mL] | also measured |
| --- | --- | --- | --- | --- | --- | --- | --- | --- |
| CC(=O)NC[C@H]1CN(c2ccc(-c3nnc(O)s3)c(F)c2)C(=O)O1 | 0.5 (≈ 1.42 µM) | 4 (≈ 11.4 µM) | 4 (≈ 11.4 µM) | 1 (≈ 2.84 µM) | 1 (≈ 2.84 µM) | 0.125 (≈ 0.355 µM) | 1 (≈ 2.84 µM) | ED50 (Mus musculus [4]): 13 mg/kg |
| CC(=O)CCc1nnc(-c2ccc(N3C[C@H](CNC(C)=O)OC3=O)cc2F)s1 | 0.25 (≈ 0.615 µM) | 4 (≈ 9.84 µM) | 4 (≈ 9.84 µM) | 1 (≈ 2.46 µM) | 1 (≈ 2.46 µM) | < 0.125 | 0.5 (≈ 1.23 µM) | ED50 (Mus musculus [5]): 7.6 mg/kg |
| CC(=O)NC[C@H]1CN(c2ccc(-c3nncs3)c(F)c2)C(=O)O1 | 0.25 (≈ 0.743 µM) | 4 (≈ 11.9 µM) | 4 (≈ 11.9 µM) | 1 (≈ 2.97 µM) | 1 (≈ 2.97 µM) | 0.25 (≈ 0.743 µM) | 1 (≈ 2.97 µM) | ED50 (Mus musculus [6]): 2.2 mg/kg |
| CC(=O)NC[C@H]1CN(c2ccc(-c3nnc(C(N)=O)s3)c(F)c2)C(=O)O1 | 0.25 (≈ 0.659 µM) | 16 (≈ 42.2 µM) | 4 (≈ 10.5 µM) | 0.5 (≈ 1.32 µM) | 0.5 (≈ 1.32 µM) | 0.25 (≈ 0.659 µM) | 1 (≈ 2.64 µM) | ED50 (Mus musculus [7]): 12.4 mg/kg |
| CCc1nnc(-c2ccc(N3C[C@H](CNC(C)=O)OC3=O)cc2F)s1 | 0.25 (≈ 0.686 µM) | 4 (≈ 11 µM) | 2 (≈ 5.49 µM) | 1 (≈ 2.74 µM) | 0.5 (≈ 1.37 µM) | 0.25 (≈ 0.686 µM) | 0.5 (≈ 1.37 µM) | ED50 (Mus musculus [4]): 9.2 mg/kg |
| CC(=O)NC[C@H]1CN(c2ccc(N3CCOCC3)c(F)c2)C(=O)O1 [LINEZOLID] | – | 16 (≈ 47.4 µM) | 8 (≈ 23.7 µM) | – | – | – | – | MIC [8]: 1 µg/mL (≈ 2.96 µM) |
| CC(=O)NC[C@H]1CN(c2ccc(-c3nnc(CC/C(C)=N/O)s3)c(F)c2)C(=O)O1 | 0.5 (≈ 1.19 µM) | 4 (≈ 9.49 µM) | 4 (≈ 9.49 µM) | 2 (≈ 4.75 µM) | 2 (≈ 4.75 µM) | < 0.125 | 1 (≈ 2.37 µM) | ED50 (Mus musculus [9]): > 20 mg/kg |
| CNCc1nnc(-c2ccc(N3C[C@H](C/N=C(/C)S)OC3=O)cc2F)s1 | < 0.5 | < 0.5 | < 0.5 | < 0.5 | – | < 0.5 | < 0.5 | ED50 (Mus musculus [10]): > 20 mg/kg |
| CC(=O)NC[C@H]1CN(c2ccc(-c3nnc(CC(N)=O)s3)c(F)c2)C(=O)O1 | 0.5 (≈ 1.27 µM) | 4 (≈ 10.2 µM) | 8 (≈ 20.3 µM) | 4 (≈ 10.2 µM) | 4 (≈ 10.2 µM) | < 0.125 | 2 (≈ 5.08 µM) | ED50 (Mus musculus [11]): > 20 mg/kg |
| CCOC(=O)c1nnc(-c2ccc(N3C[C@H](CNC(C)=O)OC3=O)cc2F)s1 | 2 (≈ 4.9 µM) | > 16 | 16 (≈ 39.2 µM) | 8 (≈ 19.6 µM) | 8 (≈ 19.6 µM) | < 0.125 | 8 (≈ 19.6 µM) | – |
| CSCc1nnc(-c2ccc(N3C[C@H](CNC(C)=O)OC3=O)cc2F)s1 | 0.25 (≈ 0.631 µM) | > 16 | 4 (≈ 10.1 µM) | 1 (≈ 2.52 µM) | 1 (≈ 2.52 µM) | 0.25 (≈ 0.631 µM) | 1 (≈ 2.52 µM) | – |
| CNCc1nnc(-c2ccc(N3C[C@H](CNC(C)=O)OC3=O)cc2F)s1 | 1 (≈ 2.64 µM) | 4 (≈ 10.5 µM) | 4 (≈ 10.5 µM) | 4 (≈ 10.5 µM) | 4 (≈ 10.5 µM) | < 0.5 | 2 (≈ 5.27 µM) | – |
| C/C(S)=N/C[C@H]1CN(c2ccc(-c3nnc(CN)s3)c(F)c2)C(=O)O1 | < 0.5 | < 0.5 | < 0.5 | < 0.5 | – | < 0.5 | < 0.5 | ED50 (Mus musculus [12]): > 20 mg/kg; clearance [13]: 34.3 mL/min/kg; bioavailability [14]: 14% |
| CC(=O)NC[C@H]1CN(c2ccc(-c3nnc(CN)s3)c(F)c2)C(=O)O1 | 1 (≈ 2.74 µM) | 2 (≈ 5.47 µM) | 2 (≈ 5.47 µM) | 8 (≈ 21.9 µM) | 4 (≈ 10.9 µM) | < 0.125 | 1 (≈ 2.74 µM) | ED50 (Mus musculus [15]): 21.3 mg/kg |
| C/C(S)=N/C[C@H]1CN(c2ccc(-c3nncs3)c(F)c2)C(=O)O1 | < 0.125 | 1 (≈ 2.84 µM) | 0.25 (≈ 0.709 µM) | 0.25 (≈ 0.709 µM) | < 0.125 | < 0.125 | 0.125 (≈ 0.355 µM) | ED50 (Mus musculus [16]): > 20 mg/kg |
| CC(=O)NC[C@H]1CN(c2ccc(-c3nnc(CC#N)s3)c(F)c2)C(=O)O1 | 0.25 (≈ 0.666 µM) | 4 (≈ 10.7 µM) | 4 (≈ 10.7 µM) | 2 (≈ 5.33 µM) | 1 (≈ 2.66 µM) | 0.25 (≈ 0.666 µM) | 1 (≈ 2.66 µM) | ED50 (Mus musculus [17]): > 20 mg/kg |
| CC(=O)NC[C@H]1CN(c2ccc(-c3nnc(CO)s3)c(F)c2)C(=O)O1 | 0.25 (≈ 0.682 µM) | 4 (≈ 10.9 µM) | 2 (≈ 5.46 µM) | 1 (≈ 2.73 µM) | 1 (≈ 2.73 µM) | < 0.125 | 1 (≈ 2.73 µM) | ED50 (Mus musculus [18]): 8.7 mg/kg |
| CC(=O)NC[C@H]1CN(c2ccc(-c3nnc(CF)s3)c(F)c2)C(=O)O1 | 0.25 (≈ 0.679 µM) | 4 (≈ 10.9 µM) | 2 (≈ 5.43 µM) | 1 (≈ 2.71 µM) | 1 (≈ 2.71 µM) | 0.25 (≈ 0.679 µM) | 1 (≈ 2.71 µM) | ED50 (Mus musculus [19]): 8.6 mg/kg |
| CC(=O)NC[C@H]1CN(c2ccc(-c3nnc(CS(C)(=O)=O)s3)c(F)c2)C(=O)O1 | 1 (≈ 2.33 µM) | 4 (≈ 9.34 µM) | 4 (≈ 9.34 µM) | 4 (≈ 9.34 µM) | 4 (≈ 9.34 µM) | < 0.5 | 2 (≈ 4.67 µM) | – |
| C/C(S)=N/C[C@H]1CN(c2ccc(-c3nnc(CS(C)(=O)=O)s3)c(F)c2)C(=O)O1 | 0.25 (≈ 0.562 µM) | 2 (≈ 4.5 µM) | 0.5 (≈ 1.12 µM) | 0.25 (≈ 0.562 µM) | 0.5 (≈ 1.12 µM) | 0.06 (≈ 0.135 µM) | 0.25 (≈ 0.562 µM) | ED50 (Mus musculus [9]): > 20 mg/kg |
| COCc1nnc(-c2ccc(N3C[C@H](CNC(C)=O)OC3=O)cc2F)s1 | 4 (≈ 10.5 µM) | 8 (≈ 21 µM) | 4 (≈ 10.5 µM) | 2 (≈ 5.26 µM) | 1 (≈ 2.63 µM) | 0.25 (≈ 0.657 µM) | 1 (≈ 2.63 µM) | ED50 (Mus musculus [20]): 5.8 mg/kg |
| CC(=O)NC[C@H]1CN(c2ccc(-c3nnc(C)s3)c(F)c2)C(=O)O1 | < 0.125 | 2 (≈ 5.71 µM) | 2 (≈ 5.71 µM) | 1 (≈ 2.85 µM) | 0.5 (≈ 1.43 µM) | < 0.125 | 0.5 (≈ 1.43 µM) | ED50 (Mus musculus [11]): 6.2 mg/kg |
| CC(=O)NC[C@H]1CN(c2ccc(-c3nnc(C[S+](C)[O-])s3)c(F)c2)C(=O)O1 (some centres undefined) | 0.5 (≈ 1.21 µM) | 8 (≈ 19.4 µM) | 8 (≈ 19.4 µM) | 8 (≈ 19.4 µM) | 8 (≈ 19.4 µM) | 0.25 (≈ 0.606 µM) | 4 (≈ 9.7 µM) | – |
